Blank lines part the entries; values can stand above or below the sequence they belong to.
Molecular target: T1, MyD88^TIR (Homo sapiens, UniProt Q99836)
T1 construct: MyD88 (residues 148–296); 6xHis; made in house; host or cells: E. coli BL21 (DE3)
Experiment: T‐Surf phage library (P8 and P3) selection against MyD88^TIR, four rounds, NGS read counts
Assay type: binding
Conditions: for P8_MyD88 Rank (after) / P8_MyD88 Rank (before): P8 library; for P3_MyD88 Rank (after) / P3_MyD88 Rank (before): P3 library; for Population: 4th round of selection against MyD88 TIR, share of NGS reads
Procedure: T‐Surf libraries were screened against the immobilized TIR domains of two major human TLR adaptor proteins, MAL^TIR and MyD88^TIR, allowing cross‐species selection of TIR‐binding motifs with 190 946 TIR‐derived peptides in a single binding assay (Scheme 1). Enriched phage pools from the fourth round of selection were analyzed using NGS after barcoding the peptide‐coding regions of the phage pools.
Phage display screening was performed by coating two wells of a 96‐well plate (Maxisorp, Thermo Fisher Scientific) with 100 µL of 5 µg mL^−1 TIR domains overnight; then, the coated wells were blocked with 200 µL of blocking buffer (0.2% BSA in PBS) and set aside for 1 h at 4 °C with gentle shaking. Next, 100 µL of the phage library was added to the wells and incubated for 1 h at room temperature (RT; 20 – 22 °C) with gentle shaking. The plate was washed four times with PBS containing 0.5% Tween‐20; the bound phages were eluted by adding 100 µL of 100 mM HCl to each well. The elute was neutralized with 10 µL of 1.0 M Tris‐HCl (pH 11.0). E. coli TG1 cells were grown to the log phase (A600 = ≈0.6), and 1 mL of the culture was incubated with 100 µL of the eluted phages for 30 min at 37 °C, with shaking at 200 rpm. Next, 1 µL of M13KO7 helper phages was added, followed by incubation for 45 min at 37 °C, with shaking. Subsequently, the cells were transferred to 25 mL of 2× yeast extract tryptone/carbenicillin/kanamycin medium and incubated overnight at 37 °C with shaking at 200 rpm. The amplified phages were precipitated with 20% PEG‐8000/2.5 M NaCl to be used for the next round of selection.
The naïve T‐Surf libraries in P8 and P3 and the enriched phage pools after four rounds were barcoded for NGS as previously described.^[ [59] ^] Briefly, 5 µL of the phage pool was used as a template for 20 cycles of a 50 µL PCR reaction using […] each of forward and reverse barcoded primers and PrimeSTAR Max DNA Polymerase. The PCR products were purified using Expin Gel SV (GeneAll). The NGS samples were quantified using qPCR, following the qPCR Quantification Protocol Guide (KAPA Library Quantification kits for Illumina Sequencing Platform), and qualified using the TapeStation High Sensitivity D1000 ScreenTape (Agilent Technologies). The indexed libraries were further sequenced by Macrogen (Seoul, Republic of Korea) using the NovaSeq platform (Illumina) with 100 bp paired‐end reads. The reads were demultiplexed by barcodes and filtered for an average Phred quality score of at least 30, followed by trimming the flanking consensus sequences using Cutadapt (version 2.3). Peptide sequence populations were analyzed according to the read counts.

[1] = selection against MyD88, rank by count after grouping
[2] = selection against MyD88, rank by count before grouping
[3] = selection against MyD88, rank after grouping
[4] = selection against MyD88, rank before grouping
[5] = P3_MyD88 pool: P3 T-Surf phage library
[6] = 4R selection against MyD88, rank after grouping
[7] = 4R selection against MyD88, rank before grouping
[8] = P8_MyD88: rank by count after grouping
[9] = P8_MyD88: rank by count before grouping
[10] = P3_MyD88: rank by count after grouping
[11] = P3_MyD88: rank by count before grouping
[12] = selection against MyD88 TIR, rank by count after grouping
[13] = selection against MyD88 TIR, rank by count before grouping
[14] = P8_MyD88: rank by NGS read count after grouping
[15] = P8_MyD88: rank by NGS read count before grouping

T1 sequence (Q99836 148-296): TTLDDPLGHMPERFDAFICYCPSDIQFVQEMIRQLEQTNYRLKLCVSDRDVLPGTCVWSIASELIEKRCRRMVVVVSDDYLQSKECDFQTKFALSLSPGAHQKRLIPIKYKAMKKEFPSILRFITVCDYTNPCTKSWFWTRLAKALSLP

Sequence: SSFRECLWSLPELSKK
P3_MyD88 Rank (after) [1]: 699
P3_MyD88 Rank (before) [2]: 3138

Sequence: DLLLSEFQSIFARRTV
P8_MyD88 Rank (after) [3]: 531
P8_MyD88 Rank (before) [4]: 2593

Sequence: IDDEHLTYLGRLLLSR
P8_MyD88 Rank (after) [6]: 580
P8_MyD88 Rank (before) [7]: 3649

Sequence: DPQDLDWFYECPVSMF
P8_MyD88 Rank (after) [3]: 535
P8_MyD88 Rank (before) [4]: 2754

Sequence: SSFREGLWRLLELSQN
P3_MyD88 Rank (after) [3]: 544
P3_MyD88 Rank (before) [4]: 3171

Sequence: KWLWDKLIYARSRNPH
P3_MyD88 Rank (after) [3]: 490
P3_MyD88 Rank (before) [4]: 3584

Sequence: DPQGLDWFYERLFSQM
Rank (after) [8]: 396
Rank (before) [9]: 2679

Sequence: SSFREGPWRLLELSKN
P3_MyD88 Rank (after) [6]: 609
P3_MyD88 Rank (before) [7]: 3217

Sequence: HWIDWVWDYLLPNLEGPAG
P8_MyD88 Rank (after) [6]: 581
P8_MyD88 Rank (before) [7]: 3518

Sequence: WDFASKMEQFLDRLYY
Rank (after) [14]: 893
Rank (before) [15]: 1632

Sequence: WALDELLKILYVIATL
P8_MyD88 Rank (after) [3]: 525
P8_MyD88 Rank (before) [4]: 1480

Sequence: LKVEIWLQTLEKAEKP
Rank (after) [10]: 440
Rank (before) [11]: 2472

Sequence: PQDLDWFYERLVSLL
Rank (after) [8]: 101
Rank (before) [9]: 120
Population (P8_MyD88 pool: P8 T-Surf phage library): 0.0189%

Sequence: DPQALDWFYERLVRLF
P8_MyD88 Rank (after) [12]: 279
P8_MyD88 Rank (before) [13]: 2689

Sequence: PVAHDLSKKMKIFATI
Rank (after) [10]: 474
Rank (before) [11]: 2698

Sequence: SSFREGMWRLLELSKK
Population [5]: 0.00408%

Sequence: FLSYLALEKRFSPIGQ
P3_MyD88 Rank (after) [3]: 515
P3_MyD88 Rank (before) [4]: 1343

Sequence: KNLFNLLGSKDIRALM
P3_MyD88 Rank (after) [3]: 542
P3_MyD88 Rank (before) [4]: 3781

Results, then the sequence that gave them:

P8_MyD88 Rank (after) [1]: 726
P8_MyD88 Rank (before) [2]: 3492
Sequence: PQDQEWFYERIVSLP

P8_MyD88 Rank (after) [3]: 502
P8_MyD88 Rank (before) [4]: 3704
Sequence: SAASDDFWDGLIRMIE

Population [5]: 0.0032%
Sequence: YAFTGHLHRYLVQRAA

P8_MyD88 Rank (after) [6]: 659
P8_MyD88 Rank (before) [7]: 3211
Sequence: LVYHWIDWVYFVGIED

P8_MyD88 Rank (after) [6]: 613
P8_MyD88 Rank (before) [7]: 1571
Sequence: WDFSGNMKQALDRLCY

Population [5]: 0.00349%
Sequence: LKVESWRQAQEKAGKL

Rank (after) [8]: 470
Rank (before) [9]: 1677
Sequence: YYDSRWALDELLKILDAKETM

P3_MyD88 Rank (after) [3]: 564
P3_MyD88 Rank (before) [4]: 2395
Sequence: LSRVTSVHDARGLGGI

P8_MyD88 Rank (after) [3]: 509
P8_MyD88 Rank (before) [4]: 3654
Sequence: MFGGATLHDVLELISM

Rank (after) [10]: 394
Rank (before) [11]: 3156
Sequence: SSFREGLWCLRELSKK

Rank (after) [10]: 165
Rank (before) [11]: 648
Sequence: EWIREQLRPALDELVL

P8_MyD88 Rank (after) [12]: 274
P8_MyD88 Rank (before) [13]: 530
Sequence: WSQPEFRAAMQAVLEL

Rank (after) [14]: 960
Rank (before) [15]: 3299
Sequence: LGYHWMEWEYVVGIED

P8_MyD88 Rank (after) [3]: 529
P8_MyD88 Rank (before) [4]: 1611
Sequence: WDFASNMEQFWDRLIRMIE

P8_MyD88 Rank (after) [6]: 647
P8_MyD88 Rank (before) [7]: 2457
Sequence: DWVWDELLKILYANETM

Rank (after) [10]: 477
Rank (before) [11]: 2457
Sequence: LKWEGPYFWRKMRYAL

P3_MyD88 Rank (after) [1]: 735
P3_MyD88 Rank (before) [2]: 1853
Sequence: GRYEELFMTETDERLP

P8_MyD88 Rank (after) [6]: 633
P8_MyD88 Rank (before) [7]: 1740
Sequence: YAASPWWFDELLQIA

Rank (after) [14]: 938
Rank (before) [15]: 2939
Sequence: DPQDLQWSYERLVSRI

P8_MyD88 Rank (after) [6]: 621
P8_MyD88 Rank (before) [7]: 2497
Sequence: DSQDLDWLYERLVSLL

P8_MyD88 Rank (after) [1]: 688
P8_MyD88 Rank (before) [2]: 2121
Sequence: YITRFDDIQQIELFWD

Rank (after) [8]: 399
Rank (before) [9]: 1289
Sequence: SSAWALNELVQIMKAW

— paper PMC11714206, “Massively Parallel Screening of Toll/Interleukin‐1 Receptor (TIR)‐Derived Peptides Reveals Multiple Toll‐Like Receptors (TLRs)‐Targeting Immunomodulatory Peptides” (Advanced Science, 2024)
